Data set [1] has as its system RAW264.7. Kind of data set: Inhibition of LPS-induced COX2 protein expression in mouse RAW264.7 cells pre-treated for 1 hr before LPS stimulation for 18 hrs by Western blot method. In kind it is functional, cell-based. On the technique in general: A western blot detects proteins with antibodies after separation by electrophoresis.
In data set [2] the test system is RAW264.7. Kind of data set: Inhibition of LPS-induced iNOS protein expression in mouse RAW264.7 cells pre-treated for 1 hr before LPS stimulation for 18 hrs by Western blot method. It counts as functional, cell-based.
Data set [3] concerns BV-2. Kind of data set: Inhibition of LPS-induced IL-1beta production in mouse BV2 cells pre-treated for 3 hrs before LPS stimulation for 24 hrs by ELISA. It counts as functional, cell-based.
In data set [4] the test system is BV-2. The experiment in a line: Inhibition of LPS-induced PGE2 production in mouse BV2 cells pre-treated for 3 hrs before LPS stimulation for 24 hrs by ELISA. It counts as functional, cell-based. (In general: An ELISA detects its analyte on a solid surface through an enzyme-linked reagent.)
In data set [5] the test system is BV-2. The experiment in a line: Inhibition of LPS-induced iNOS protein expression in mouse BV2 cells pre-treated for 1 hr before LPS stimulation for 18 hrs by Western blot method. In kind it is functional, cell-based.
The test system of data set [6] is RAW264.7. The experiment in a line: Inhibition of LPS-induced PGE2 production in mouse RAW264.7 cells pre-treated for 3 hrs before LPS stimulation for 24 hrs by ELISA. In kind it is functional, cell-based.
The nature of data set [7]: Effect on beta-actin protein expression in LPS-induced mouse BV2 cells pre-treated for 1 hr before LPS stimulation for 18 hrs by Western blot method. The following applies: bv-2, 18 h. In kind it is ADME, cell-based.
The test system of data set [8] is RAW264.7. The experiment in a line: Effect on beta-actin protein expression in LPS-induced mouse RAW264.7 cells pre-treated for 1 hr before LPS stimulation for 18 hrs by Western blot method. In kind it is ADME, cell-based. Conditions: raw264.7, 18 h.
Data set [9] deals with RAW264.7. Kind of data set: Inhibition of LPS-induced nitric oxide production in mouse RAW264.7 cells pre-treated for 3 hrs before LPS stimulation by ELISA based Griess assay. In kind it is functional, cell-based.
The target in data set [10] is T1, Tyrosine-protein phosphatase non-receptor type 1 (Homo sapiens, UniProt P18031).
T1 sequence (P18031 whole entry): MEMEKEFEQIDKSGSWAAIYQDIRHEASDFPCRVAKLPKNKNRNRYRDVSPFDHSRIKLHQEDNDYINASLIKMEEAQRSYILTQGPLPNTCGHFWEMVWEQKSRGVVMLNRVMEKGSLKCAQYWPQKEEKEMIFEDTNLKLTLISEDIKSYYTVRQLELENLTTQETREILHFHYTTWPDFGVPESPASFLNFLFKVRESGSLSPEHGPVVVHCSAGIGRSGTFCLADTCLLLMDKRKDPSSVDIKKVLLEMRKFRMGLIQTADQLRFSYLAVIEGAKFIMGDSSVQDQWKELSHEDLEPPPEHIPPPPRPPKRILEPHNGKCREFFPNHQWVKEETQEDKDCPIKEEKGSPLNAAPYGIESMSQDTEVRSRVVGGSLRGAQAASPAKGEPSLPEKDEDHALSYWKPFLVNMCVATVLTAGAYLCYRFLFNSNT
The experiment in a line: Inhibition of human recombinant PTP1B assessed as reduction in pNPP substrate hydrolysis incubated for 30 mins.

For data set [11], the system named is BV-2. Kind of data set: Inhibition of LPS-induced COX2 protein expression in mouse BV2 cells pre-treated for 1 hr before LPS stimulation for 18 hrs by Western blot method. In kind it is functional, cell-based.
Data set [12] concerns BV-2. Kind of data set: Inhibition of LPS-induced nitric oxide production in mouse BV2 cells pre-treated for 3 hrs before LPS stimulation by ELISA based Griess assay. In kind it is functional, cell-based.
Data set [13] has as its target T2, Tyrosine-protein phosphatase non-receptor type 1 (Homo sapiens) (UniProt P18031).
T2 sequence (whole entry): T1 sequence (P18031 whole entry)
Kind of data set: Inhibition of human recombinant PTP1B assessed as reduction in pNPP substrate hydrolysis at 30 uM incubated for 30 mins.

Calls of active or inactive are those of the source. The calls are words filed in the database; no cut-off is given here.

Results on 5 compounds are retold here after ChEMBL document CHEMBL3351315, “Tanzawaic acid derivatives from a marine isolate of Penicillium sp. (SF-6013) with anti-inflammatory and PTP1B inhibitory activities” (Bioorg Med Chem Lett, 2014).

As a reminder, the inhibition is the relative decrease from the control value, in per cent. Broadly, the IC50 is the concentration that inhibits the measured activity by half. For the compound `Cc1ccc2c(c1/C=C/C=C/C(=O)O)[C@H](C)C[C@H](C)C2`, the inhibition result in the data set with RAW264.7 [1], with RAW264.7 [2], with BV-2 [5] and in the data set on BV-2 [11] was “Dose-dependent effect” throughout. Also, the IC50 with BV-2 [3] is 21.9 µM; with BV-2 [4] it was 17.5 µM; in the data set with RAW264.7 [6], 15.7 µM; in the data set on RAW264.7 [9], 27 µM; in data set [10], 8.2 µM; with BV-2 [12] it was 7.1 µM. Also, the Activity result (in data set [7]; in the data set with RAW264.7 [8]) was “Non-toxic” in each case.

In the case of `Cc1ccc2c(c1/C=C/C=C/C(=O)O)[C@H](C)C[C@@](C)(O)C2`, the inhibition in data set [13] amounted to 24.1%.

Consider `Cc1ccc2c(c1/C=C\C=C\C(=O)O)[C@H](C)C[C@@](C)(O)C2`, for which the inhibition in [13] is 27.3%. Further, the IC50 in the data set with BV-2 [12] worked out at 37.8 µM.

On to `C[C@@H]1C[C@@](C)(O)C[C@@H]2C=C[C@H](C)[C@H](/C=C/C=C/C(=O)O)[C@@H]12`, for which the inhibition result in [13] was “inactive”.

Turning to `C[C@H]1C[C@@H](C)[C@@H]2[C@@H](/C=C/C=C/C(=O)O)[C@@H](C)C=C[C@H]2C1`, the IC50 came out at 8.2 µM in data set [10] and 42.5 µM in the data set on BV-2 [12].
